In one series the test system is MUC1-C. Briefly: Silencing of MUC1 expression in BC-1 cells, immunoblot. Conditions: lentivirus, compared to control siRNA (FIG. 1A). The format is cell-based, human. From the text:
FIG. 1A: BC-1 cells were infected with lentiviruses expressing the CsiRNA, MUC1siRNA#1 or MUC1siRNA#2. Lysates from the indicated cell populations were immunoblotted with anti-MUC1-C and anti-β-actin antibodies as indicated to the right of the photographs. The molecular weights of each of the proteins (in kilodaltons (kDa)) are indicated to the left of each of the photographs.
The BLOCK-iT Target Screening System (Invitrogen, Carlsbad, Calif.) was used to generate two MUC1-specific siRNA molecules (Sequence #1: […] (SEQ ID NO:31); or Sequence #2: […] (SEQ ID NO:32)) and a control siRNA sequence ([…]; SEQ ID NO:33). The RNAi cassettes (nucleic acids encoding the siRNA molecules) were inserted into pLenti4/BLOCK-iT-DEST by LR recombination for the generation of lentiviral vectors. BC-1 cells were infected with the lentiviruses at a multiplicity of infection of 5 in the presence of 8 μg/ml polybrene. Cell clones were selected in methylcellulose semi-solid medium containing 200 μg/ml Zeocin and assayed for downregulation of MUC1 by immunoblotting. […]
Cells were lysed by sonication in the presence of 10 mM Tris-HCl, pH 7.5, 150 mM NaCl, 5 mM EDTA, 0.5% NP-40, 100 μg/ml phenylmethylsulphonyl fluoride (PMSF), and standard protease inhibitors. […] Reactivity was detected with horseradish peroxidase-conjugated secondary antibodies and chemiluminescence (GE Healthcare Biosciences, Piscataway, N.J.).
Background: A western blot detects proteins with antibodies after separation by electrophoresis.

Another series deals with BC-1 cells. Description: FasL-induced apoptosis of BC-1 cells (sub-G1 DNA content). The class given is cell-based, human. The settings on record: 50 ng/ml FasL, 24 hours (FIG. 1C, 1D). As to the method:
FIG. 1C: The indicated BC-1 cell populations were treated with 50 ng/ml FasL for 24 hours and then analyzed by fluorescence assisted cell sorting (FACS) to determine the sub-G1 DNA content in the cells.
FIG. 1D: The results obtained with the indicated BC-1 cell populations left untreated (open bars) or treated with FasL (solid bars) are expressed as the percentage apoptosis (mean+SD for three experiments).
Cells were fixed in 70% ethanol and incubated in PBS containing 50 μg/ml RNase and 2.5 μg/ml propidium iodide. DNA content was analyzed by flow cytometry. The percentage of cells with sub-G1 DNA was determined by the MODFIT LT Program (Verity Software, Topsham, Me.). Cells were also suspended in Annexin-V-FLOUS containing propidium iodide (Roche) and analyzed by flow cytometry.

For another series, the target named is T1, caspase-8-p18 (Homo sapiens, UniProt Q14790).
T1 construct: His; made in house; host or cells: E. coli BL21 DE3 is stated for the GST proteins; no host is printed for the His proteins
T1 sequence (Q14790 184-384): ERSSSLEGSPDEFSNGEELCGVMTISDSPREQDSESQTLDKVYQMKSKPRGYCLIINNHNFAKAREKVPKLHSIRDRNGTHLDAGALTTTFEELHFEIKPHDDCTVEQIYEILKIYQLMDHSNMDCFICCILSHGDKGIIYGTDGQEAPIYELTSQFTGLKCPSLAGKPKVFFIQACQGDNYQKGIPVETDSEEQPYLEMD
Description: In vitro binding assay: GST-MUC1-CD(1-20) with His-caspase-8-p18 in the presence of MUC1-CD(1-20) peptide. The settings on record: increasing amounts of peptide; GST pull-down, immunoblot (FIG. 9D, lower). As to the method: FIG. 9D: GST or the indicated GST-MUC1-CD proteins were incubated with His-caspase-8-p18 (upper panel). The adsorbates were immunoblotted with anti-His and anti-GST antibodies. GST or GST-MUC1-CD(1-20) was incubated with His-caspase-8-p18 in the presence of increasing amounts of MUC1-CD(1-20) peptide (lower panel). The adsorbates were immunoblotted with anti-caspase-8 antibody as indicated to the right of the photographs. Input of the GST proteins was assessed by Coomassie blue staining.
(§1) Purified GST, GST-MUC1-CD(1-72), GST-MUC1-CD deletion mutants, GST-caspase-8, GST-caspase-8 deletion mutants, GST-FADD, GST-N-FADD and GST-C-FADD protein (36) were purified from E. coli (BL21 DE3) and immobilized on glutathione-agarose beads (Pierce). His-MUC1-CD(1-72) and His-caspase-8 deletion mutant proteins were purified on Ni-NTA beads (Qiagen, Valencia, Calif.). GST and GST fusion proteins bound to glutathione beads were incubated with purified soluble proteins for 2 hours at 4° C., and washed. Adsorbates bound to the beads were analyzed by solubilizing the protein/bead mixture in Laemli buffer following by sodium dodecyl sulfate polyacrylamide gel electrophoresis (SDS-PAGE) and immunoblotting. For competition studies, GST-caspase-8 DED protein bound to FADD was incubated with increasing amounts of MUC1-CD protein. Precipitated proteins were subjected to SDS-PAGE and immunoblot analysis. […]

The next series has as its system caspase-8. Description: In vitro binding assay (GST pull-down) of MUC1-CD proteins with caspase-8. Details: species or system human. Conditions: immunoblot (FIG. 9A, 9D). As to the method:
FIG. 9A depicts the amino acid sequence for human MUC1-CD (SEQ ID NO:2). Phosphorylation sites and regions for β-catenin, IKKβ and IKKγ binding are indicated by brackets of arrows (upper panel). GST (glutathione-S-transferase) or GST-caspase-8 protein were incubated with purified His-MUC1-CD. The adsorbates and the input protein were immunoblotted with anti-His and anti-GST antibodies as indicated to the right of the photographs. The molecular weights of each of the proteins (in kilodaltons (kDa)) are indicated to the left of each of the photographs.
FIG. 9D: GST or the indicated GST-MUC1-CD proteins were incubated with His-caspase-8-p18 (upper panel). The adsorbates were immunoblotted with anti-His and anti-GST antibodies. GST or GST-MUC1-CD(1-20) was incubated with His-caspase-8-p18 in the presence of increasing amounts of MUC1-CD(1-20) peptide (lower panel). […] Input of the GST proteins was assessed by Coomassie blue staining.
Purified GST, GST-MUC1-CD(1-72), GST-MUC1-CD deletion mutants, GST-caspase-8, GST-caspase-8 deletion mutants, GST-FADD, GST-N-FADD and GST-C-FADD protein (36) were purified from E. coli (BL21 DE3) and immobilized on glutathione-agarose beads (Pierce). […] Adsorbates bound to the beads were analyzed by solubilizing the protein/bead mixture in Laemli buffer following by sodium dodecyl sulfate polyacrylamide gel electrophoresis (SDS-PAGE) and immunoblotting. […]

Series [1] addresses T2, FADD (Homo sapiens, UniProt Q13158).
T2 sequence (Q13158 1-208): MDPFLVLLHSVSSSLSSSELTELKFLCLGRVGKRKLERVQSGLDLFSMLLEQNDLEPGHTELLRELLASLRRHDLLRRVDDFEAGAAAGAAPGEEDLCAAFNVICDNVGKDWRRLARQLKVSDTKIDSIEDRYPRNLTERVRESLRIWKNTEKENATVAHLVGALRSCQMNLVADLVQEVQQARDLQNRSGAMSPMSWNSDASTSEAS
Description: In vitro binding assay (GST pull-down) of GST-MUC1-CD proteins with purified FADD. Conditions: immunoblot (FIG. 12A). As to the method:
FIG. 12A: GST and the indicated GST-MUC1-CD proteins were incubated with purified FADD. The adsorbates and input FADD were immunoblotted with anti-FADD antibody. The GST and GSTMUC1-CD proteins were stained with Coomassie blue.
Purified GST, GST-MUC1-CD(1-72), GST-MUC1-CD deletion mutants, GST-caspase-8, GST-caspase-8 deletion mutants, GST-FADD, GST-N-FADD and GST-C-FADD protein (36) were purified from E. coli (BL21 DE3) and immobilized on glutathione-agarose beads (Pierce). His-MUC1-CD(1-72) and His-caspase-8 deletion mutant proteins were purified on Ni-NTA beads (Qiagen, Valencia, Calif.). GST and GST fusion proteins bound to glutathione beads were incubated with purified soluble proteins for 2 hours at 4° C., and washed. Adsorbates bound to the beads were analyzed by solubilizing the protein/bead mixture in Laemli buffer following by sodium dodecyl sulfate polyacrylamide gel electrophoresis (SDS-PAGE) and immunoblotting. For competition studies, GST-caspase-8 DED protein bound to FADD was incubated with increasing amounts of MUC1-CD protein. Precipitated proteins were subjected to SDS-PAGE and immunoblot analysis. In certain studies, binding was performed in the presence of a synthetic peptide ([…]) (SEQ ID NO:3) derived from amino acids 1-20 from MUC1-CD (Molecular Biology Core Facility, Dana-Farber Cancer Institute).

The target in series [2] is T2, FADD. Briefly: In vitro competition: GST-caspase-8(1-183) binding to FADD with increasing amounts of MUC1-CD. Conditions: increasing amounts of MUC1-CD protein (FIG. 12C). As to the method:
FIG. 12C: GST or GST-caspase-8(1-183) containing the DEDs was incubated with FADD in the absence or presence of increasing amounts of purified MUC1-CD. The adsorbates and input FADD were immunoblotted with anti-FADD antibody. Input of GST and GST-caspase-8(1-183) was determined by Coomassie blue staining. Input of MUC1-CD was determined by immunoblotting.
as §1

A further series has as its target T3, MUC1-CD (Homo sapiens, UniProt P15941).
T3 construct: Purified GST, GST-MUC1-CD(1-72), GST-MUC1-CD deletion mutants; made in house; host or cells: E. coli BL21 DE3
T3 sequence (P15941 1184-1255): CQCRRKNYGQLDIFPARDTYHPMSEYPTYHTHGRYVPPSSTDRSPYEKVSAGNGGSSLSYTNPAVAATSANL
Briefly: In vitro binding assay of His-caspase-8-p18 fragments with GST-MUC1-CD. Conditions: GST-MUC1-CD on glutathione beads (FIG. 9C). As to the method:
FIG. 9C is a schematic of his-tagged caspasc-8 p18 fragment depicting the A, B, C and AB subfragments (upper panel). The shaded region denotes position of the His tag. GST or GST-MUC1-CD was incubated with the indicated His-caspase-8 proteins. The adsorbates and input proteins ( 1/10th that used in the reactions) were immunoblotted with anti-His and anti-GST antibodies as indicated to the right of the photographs.
as §1

Ends that are not written are not given here.

caspase-8, sequence (Q14790 184-384 limits assumed): as the sequence (Q14790 184-384) above

For the substance “AAGGTACCATCAATGTCCACG (expressed or natural sequence) [MUC1siRNA#1]”, the MUC1-C expression entry in the series with MUC1-C is reported as “stably downregulated”. The FasL-induced apoptosis entry in the series with BC-1 cells is given as “sensitized”.

Consider “AAGTTCAGTGCCCAGCTCTAC (expressed or natural sequence) [MUC1siRNA#2]”, for which the MUC1-C expression result with MUC1-C is given as “similar”. Besides, in the series with BC-1 cells, the FasL-induced apoptosis result is on record as “confirmed”.

As for “CQCRRKNYGQLDIFPARDTY (listed as Homo sapiens) [MUC1-CD(1-20) peptide, synthetic peptide derived from amino acids 1-20 from MUC1-CD]”, the “binding of MUC1-CD(1-20) to caspase-8-p18 in the presence of the peptide” value with caspase-8-p18 is reported as “inhibited”.

“MUC1-CD(1-20): GST-MUC1-CD fragment containing just amino acids 1-20 of MUC1-CD (CQCRRKNYGQLDIFPARDTY; cysteine pairing not given here; also: GST fusion)”: the “binding to caspase-8” value in the series on caspase-8 was “able to interact with caspase-8”.

With “MUC1-CD(1-45): GST-MUC1-CD deletion mutant, amino acids 1-45 of MUC1-CD (CQCRRKNYGQLDIFPARDTYHPMSEYPTYHTHGRYVPPSSTDRSP; cysteine pairing not given here; also: GST fusion)”, the “binding to FADD” value in the series with FADD [1] was “not”.

On to “MUC1-CD: 72 amino acid cytoplasmic domain of full-length human MUC1, purified as His- or GST-tagged protein”, for which the “interaction between FADD and caspase-8 (1-183)” value in the series with FADD [2] was “progressive decrease”. Also, the “binding to caspase-8” value in the series on caspase-8 is reported as “binds to caspase-8”. The “binding to FADD” value with FADD [1] is reported as “interact directly”.

On to “YEKVSAGNGGSSLSYTNPAVAATSANL (also: GST fusion; listed as Homo sapiens) [MUC1-CD(46-72), GST-MUC1-CD deletion mutant, amino acids 46-72 of MUC1-CD]”, for which, in the series with FADD [1], the “binding to FADD” value is recorded as “found to bind to FADD”.

With “caspase-8-p18-B: His-tagged fragment B of caspase-8-p18, amino acids 270-322 of human caspase-8 (KLHSIRDRNGTHLDAGALTTTFEELHFEIKPHHDCTVEQIYEILKIYQLMDHS; also: His tag; listed as Homo sapiens)”, in the series with MUC1-CD, the “binding to MUC1-CD” value is “binds”.
